Experiment [1] relates to HEK293T. Description: Inhibition of HA-tagged Foxp3 (unknown origin) nuclear translocation transfected in a HEK293T cells at 50 to 100 uM incubated for 24 hrs by DAPI staining based confocal microscopic analysis. In kind it is cell-based. The following applies: Homo sapiens, dose 50-100 µM.
In experiment [2] the target is T1, von Hippel-Lindau disease tumor suppressor/Forkhead box protein P3 (Homo sapiens) (UniProt P40337+Q9BZS1). As to the kind of experiment: PROTAC activity at VHL/Foxp3 (unknown origin) transfected in HEK293T cells assessed as induction of Foxp3 degradation by measuring reduction in protein level at 10 to 1000 nM incubated for 24 hrs by Western blot analysis. Format: cell-based. The note with it: dose 10-1000 nM.

In the next experiment the test system is HeLa. As to the kind of experiment: Inhibition of HA-tagged Foxp3 (unknown origin) nuclear translocation transfected in human HeLa cells at 1 uM incubated for 24 hrs by DAPI staining based confocal microscopic analysis. In kind it is cell-based.
The test system of experiment [3] is CD4+ T cell. As to the kind of experiment: Immunomodulatory activity in anti-CD3/CD28-induced C57BL/6 mouse CD4+ T cells isolated from spleen/lymph nodes assessed as increase in IFN-gamma mRNA expression in IL2/TGF-beta induced T regulatory cells measured after 72 hrs by RT-qPCR analysis. Format: functional, cell-based. Background: Quantitative PCR measures a nucleic acid by following its amplification.

The test system of experiment [4] is CD4+ T cell. Description: Immunomodulatory activity in anti-CD3/CD28-induced C57BL/6 mouse CD4+ T cells isolated from spleen/lymph nodes assessed as increase in IL2 mRNA expression in IL2/TGF-beta induced T regulatory cells measured after 72 hrs by RT-qPCR analysis. In kind it is functional, cell-based.
Experiment [5] has as its system HEK293T. As to the kind of experiment: Inhibition of HA-tagged Foxp3 (unknown origin) nuclear translocation transfected in a HEK293T cells at 1 to 3 uM incubated for 24 hrs by DAPI staining based confocal microscopic analysis. In kind it is cell-based. The note with it: Homo sapiens, dose 1-3 µM.
A short description of experiment [6]: Immunomodulatory activity in anti-CD3/CD28-induced C57BL/6 mouse CD4+ T cells isolated from spleen/lymph nodes assessed as reduction in foxp3+ CD4+ IL2/TGF-beta induced T regulatory cells at 2 uM incubated for 72 hrs by fluorescence activated cell sorting analysis (reference value: 32.7 %). Format: functional. Further details: scale not given: the % may be the effect or the level left.

The target of experiment [7] is T1, von Hippel-Lindau disease tumor suppressor/Forkhead box protein P3 (Homo sapiens). Description: PROTAC activity at VHL/Foxp3 (unknown origin) transfected in HEK293T cells assessed as induction of Foxp3 degradation by measuring reduction in protein level at 1 uM measured after 24 to 48 hrs by Western blot analysis. The note with it: time 24-48 hrs. In kind it is cell-based. A general note: Immunoblotting shows a protein as a band on a membrane.

Experiment [8] is described as follows: Immunomodulatory activity in anti-CD3/CD28-induced C57BL/6 mouse CD4+ T cells isolated from spleen/lymph nodes assessed as reduction in foxp3+ CD4+ IL2/TGF-beta induced T regulatory cells at 2 uM incubated for 48 hrs by fluorescence activated cell sorting analysis (reference value: 6.56 %). More on the design: scale not given: the % may be the effect or the level left. Format: functional.

The target of experiment [9] is T1, von Hippel-Lindau disease tumor suppressor/Forkhead box protein P3 (Homo sapiens). As to the kind of experiment: PROTAC activity at VHL/Foxp3 (unknown origin) transfected in HEK293T cells assessed as induction of Foxp3 degradation by measuring reduction in protein level at 500 to 1000 nM incubated for 24 hrs by Western blot analysis. The note with it: dose 500-1000 nM. In kind it is cell-based.

Experiment [10] is described as follows: Immunomodulatory activity in anti-CD3/CD28-induced C57BL/6 mouse CD4+ T cells isolated from spleen/lymph nodes assessed as reduction in foxp3+ CD4+ IL2/TGF-beta induced T regulatory cells at 1 uM incubated for 72 hrs by fluorescence activated cell sorting analysis (reference value: 32.7 %). Format: functional. Further details: scale not given: the % may be the effect or the level left.

Experiment [11] concerns CD4+ T cell. Description: Immunomodulatory activity in anti-CD3/CD28-induced C57BL/6 mouse CD4+ T cells isolated from spleen/lymph nodes assessed as reduction in Foxp3 mRNA expression in IL2/TGF-beta induced T regulatory cells measured after 72 hrs by RT-qPCR analysis. In kind it is functional, cell-based.
In experiment [12] the target is T1, von Hippel-Lindau disease tumor suppressor/Forkhead box protein P3 (Homo sapiens). Description: PROTAC activity at VHL/Foxp3 (unknown origin) transfected in HEK293T cells assessed as induction of Foxp3 degradation by measuring reduction in protein level at 3 uM incubated for 48 hrs in presence of MG132 by Western blot analysis. In kind it is cell-based.
For experiment [13], the system named is CD4+ T cell. As to the kind of experiment: Immunomodulatory activity in anti-CD3/CD28-induced C57BL/6 mouse CD4+ T cells isolated from spleen/lymph nodes assessed as reduction in Foxp3 protein expression in IL2/TGF-beta induced T regulatory cells at 1 to 4 uM measured after 72 hrs by Western blot analysis. Format: functional, cell-based. The following applies: dose 1-4 µM.

The nature of experiment [14]: Immunomodulatory activity in anti-CD3/CD28-induced C57BL/6 mouse CD4+ T cells isolated from spleen/lymph nodes assessed as reduction in foxp3+ CD4+ IL2/TGF-beta induced T regulatory cells at 1 uM incubated for 48 hrs by fluorescence activated cell sorting analysis (reference value: 6.56 %). More on the design: scale not given: the % may be the effect or the level left. In kind it is functional.

A short description of experiment [15]: Immunomodulatory activity in anti-CD3/CD28-induced C57BL/6 mouse CD4+ T cells isolated from spleen/lymph nodes assessed as reduction in foxp3+ CD4+ IL2/TGF-beta induced T regulatory cells at 3 uM incubated for 72 hrs by fluorescence activated cell sorting analysis (reference value: 32.7 %). In kind it is functional. Further details: scale not given: the % may be the effect or the level left.

Experiment [16] in a line: Immunomodulatory activity in anti-CD3/CD28-induced C57BL/6 mouse CD4+ T cells isolated from spleen/lymph nodes assessed as reduction in foxp3+ CD4+ IL2/TGF-beta induced T regulatory cells at 4 uM incubated for 48 hrs by fluorescence activated cell sorting analysis (reference value: 6.56 %). Format: functional. More on the design: scale not given: the % may be the effect or the level left.

Experiment [17] in a line: Immunomodulatory activity in anti-CD3/CD28-induced C57BL/6 mouse CD4+ T cells isolated from spleen/lymph nodes assessed as reduction in foxp3+ CD4+ IL2/TGF-beta induced T regulatory cells at 4 uM incubated for 72 hrs by fluorescence activated cell sorting analysis (reference value: 32.7 %). More on the design: scale not given: the % may be the effect or the level left. Format: functional.

Activity calls are given as the source filed them. The calls are words filed in the database; no cut-off is given here. Residues, ends and D or L forms follow the SMILES beside them. *: point of attachment. X1 = Cc1ncsc1-c1ccc(CNC(=O)[C@@H]2C[C@@H](O)CN2C(=O)[C@@H](NC(=O)COCCOCCNC(=O)CCCCCc2cn(CCCC(=O)*)nn2)C(C)(C)C)cc1; X2 = Cc1ncsc1-c1ccc(CNC(=O)[C@@H]2C[C@@H](O)CN2C(=O)[C@@H](NC(=O)CCOCCOCCc2cn(CCCC(=O)*)nn2)C(C)(C)C)cc1; X3 = Cc1ncsc1-c1ccc(CNC(=O)[C@@H]2C[C@@H](O)CN2C(=O)[C@@H](NC(=O)CCCCCc2cn(CCCC(=O)*)nn2)C(C)(C)C)cc1

T1 sequence (P40337 whole entry, looked up): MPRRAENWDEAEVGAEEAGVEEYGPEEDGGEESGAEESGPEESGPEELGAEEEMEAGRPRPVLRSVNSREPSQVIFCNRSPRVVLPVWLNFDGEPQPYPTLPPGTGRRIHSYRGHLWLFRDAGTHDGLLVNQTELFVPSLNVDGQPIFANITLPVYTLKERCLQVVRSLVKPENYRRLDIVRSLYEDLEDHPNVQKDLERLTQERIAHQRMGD
T1 sequence (Q9BZS1 whole entry, looked up): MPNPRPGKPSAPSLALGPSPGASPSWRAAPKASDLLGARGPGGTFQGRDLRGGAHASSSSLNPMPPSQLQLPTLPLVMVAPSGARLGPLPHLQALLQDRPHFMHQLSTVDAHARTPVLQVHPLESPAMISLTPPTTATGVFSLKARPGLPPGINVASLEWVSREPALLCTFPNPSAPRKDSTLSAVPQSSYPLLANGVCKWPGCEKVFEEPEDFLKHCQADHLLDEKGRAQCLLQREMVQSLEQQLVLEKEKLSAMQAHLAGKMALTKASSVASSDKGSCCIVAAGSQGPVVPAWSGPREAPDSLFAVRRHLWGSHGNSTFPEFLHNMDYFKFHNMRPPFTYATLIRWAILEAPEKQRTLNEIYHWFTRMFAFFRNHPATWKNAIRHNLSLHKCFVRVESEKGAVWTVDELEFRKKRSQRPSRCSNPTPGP

Regarding H-RDFQSFRKMWPFFAM-OH, the inhibition result in the experiment with HEK293T [1] was “Active”.

As to `CSCC[C@H](NC(=O)[C@H](C)NC(=O)[C@H](Cc1ccccc1)NC(=O)[C@H](Cc1ccccc1)NC(=O)[C@@H]1CCCN1C(=O)[C@H](Cc1c[nH]c2ccccc12)NC(=O)[C@H](CCSC)NC(=O)[C@H](CCCCN)NC(=O)[C@H](CCCNC(=N)N)NC(=O)[C@H](Cc1ccccc1)NC(=O)[C@H](CO)NC(=O)[C@H](CCC(N)=O)NC(=O)[C@H](Cc1ccccc1)NC(=O)[C@H](CC(=O)O)NC(=O)[C@H](CCCNC(=N)N)NC(=O)CCCn1cc(CCOCCOCCC(=O)N[C@H](C(=O)N2C[C@H](O)C[C@H]2C(=O)NCc2ccc(-c3scnc3C)cc2)C(C)(C)C)nn1)C(N)=O` (X2-RDFQSFRKMWPFFAM-NH2), the outcome in [2] was inactive. For the same compound, the inhibition entry in the experiment with HeLa was “inactive”.

Take `CSCC[C@H](NC(=O)[C@H](C)NC(=O)[C@H](Cc1ccccc1)NC(=O)[C@H](Cc1ccccc1)NC(=O)[C@@H]1CCCN1C(=O)[C@H](Cc1c[nH]c2ccccc12)NC(=O)[C@H](CCSC)NC(=O)[C@H](CCCCN)NC(=O)[C@H](CCCNC(=N)N)NC(=O)[C@H](Cc1ccccc1)NC(=O)[C@H](CO)NC(=O)[C@H](CCC(N)=O)NC(=O)[C@H](Cc1ccccc1)NC(=O)[C@H](CC(=O)O)NC(=O)[C@H](CCCNC(=N)N)NC(=O)CCCn1cc(CCCCCC(=O)NCCOCCOCC(=O)N[C@H](C(=O)N2C[C@H](O)C[C@H]2C(=O)NCc2ccc(-c3scnc3C)cc2)C(C)(C)C)nn1)C(N)=O` (X1-RDFQSFRKMWPFFAM-NH2): the outcome (in the experiment with CD4+ T cell [3]; with CD4+ T cell [4]; in experiment [7]; in experiment [9]; with CD4+ T cell [11]; with CD4+ T cell [13]) was Active. The inhibition entry in the experiment with HEK293T [5] is listed as “Active; Comparable Effect To 100 Um Of P60 Peptide Observed At 1 Um”. Also, the Activity in [6] was 25.8%; in [8], 5.03%; in [10], 28.8%; in [14], 6.08%; in experiment [15] it was 20.2%; in [16] it was 4.87%. For the same compound, the Activity in experiment [17] was 15.6%. In addition, the outcome in [12] was inactive. Besides, the inhibition entry with HeLa is “Active”.

Take `CSCC[C@H](NC(=O)[C@H](C)NC(=O)[C@H](Cc1ccccc1)NC(=O)[C@H](Cc1ccccc1)NC(=O)[C@@H]1CCCN1C(=O)[C@H](Cc1c[nH]c2ccccc12)NC(=O)[C@H](CCSC)NC(=O)[C@H](CCCCN)NC(=O)[C@H](CCCNC(=N)N)NC(=O)[C@H](Cc1ccccc1)NC(=O)[C@H](CO)NC(=O)[C@H](CCC(N)=O)NC(=O)[C@H](Cc1ccccc1)NC(=O)[C@H](CC(=O)O)NC(=O)[C@H](CCCNC(=N)N)NC(=O)CCCn1cc(CCCCCC(=O)N[C@H](C(=O)N2C[C@H](O)C[C@H]2C(=O)NCc2ccc(-c3scnc3C)cc2)C(C)(C)C)nn1)C(N)=O` (X3-RDFQSFRKMWPFFAM-NH2): the result in [2] was inactive. Also, in the experiment with HeLa, the inhibition result was “inactive”.
